Columns and labels:
[1] = biological target: Muscarinic acetylcholine receptor M3 (Homo sapiens, UniProt P20309); test: In vitro binding affinity towards muscarinic receptor in parotid gland (M3); assay type: tissue-based
[2] = biological target: T1, Muscarinic acetylcholine receptor M2 (Homo sapiens, UniProt P08172); test: In vitro binding affinity towards muscarinic receptor in heart (M2) was determined
T1 sequence (P08172 whole entry): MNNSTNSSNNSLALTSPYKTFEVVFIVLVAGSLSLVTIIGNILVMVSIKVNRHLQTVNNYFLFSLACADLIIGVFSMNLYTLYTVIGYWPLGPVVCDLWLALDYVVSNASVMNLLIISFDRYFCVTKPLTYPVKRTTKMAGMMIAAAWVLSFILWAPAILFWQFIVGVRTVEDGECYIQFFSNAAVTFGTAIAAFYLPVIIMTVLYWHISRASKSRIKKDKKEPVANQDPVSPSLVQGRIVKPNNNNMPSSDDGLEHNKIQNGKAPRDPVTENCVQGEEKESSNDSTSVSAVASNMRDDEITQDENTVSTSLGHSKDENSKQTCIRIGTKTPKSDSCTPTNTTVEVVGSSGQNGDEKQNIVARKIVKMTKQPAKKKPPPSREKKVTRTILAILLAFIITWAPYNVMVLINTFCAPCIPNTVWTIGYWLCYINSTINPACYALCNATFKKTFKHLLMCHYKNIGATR

[3] = biological target: Muscarinic acetylcholine receptor; test: In vitro binding affinity towards muscarinic receptor in urinary bladder was determined; assay type: protein assay, Cavia porcellus
[4] = biological target: T2, Muscarinic acetylcholine receptor M1 (Homo sapiens, UniProt P11229); test: In vitro binding affinity towards muscarinic receptor in cerebral cortex (M1) was determined; assay type: tissue-based
T2 sequence (P11229 whole entry): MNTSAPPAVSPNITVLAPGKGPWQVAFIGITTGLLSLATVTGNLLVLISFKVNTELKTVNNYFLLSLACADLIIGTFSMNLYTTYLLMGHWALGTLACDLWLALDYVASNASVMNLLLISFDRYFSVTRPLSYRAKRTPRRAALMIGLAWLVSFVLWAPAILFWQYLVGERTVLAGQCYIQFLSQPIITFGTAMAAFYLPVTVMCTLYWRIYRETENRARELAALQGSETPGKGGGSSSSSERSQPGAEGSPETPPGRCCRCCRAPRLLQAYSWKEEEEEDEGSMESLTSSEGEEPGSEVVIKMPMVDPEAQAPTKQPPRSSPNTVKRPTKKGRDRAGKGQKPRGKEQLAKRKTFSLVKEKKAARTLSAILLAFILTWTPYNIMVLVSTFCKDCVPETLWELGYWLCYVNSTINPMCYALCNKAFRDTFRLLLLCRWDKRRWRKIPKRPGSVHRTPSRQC

[5] = biological target: Muscarinic acetylcholine receptor (Cavia porcellus); test: Binding affinity towards muscarinic receptor in urinary bladder was determined

Chain of Muscarinic acetylcholine receptor M3 (P20309 whole entry): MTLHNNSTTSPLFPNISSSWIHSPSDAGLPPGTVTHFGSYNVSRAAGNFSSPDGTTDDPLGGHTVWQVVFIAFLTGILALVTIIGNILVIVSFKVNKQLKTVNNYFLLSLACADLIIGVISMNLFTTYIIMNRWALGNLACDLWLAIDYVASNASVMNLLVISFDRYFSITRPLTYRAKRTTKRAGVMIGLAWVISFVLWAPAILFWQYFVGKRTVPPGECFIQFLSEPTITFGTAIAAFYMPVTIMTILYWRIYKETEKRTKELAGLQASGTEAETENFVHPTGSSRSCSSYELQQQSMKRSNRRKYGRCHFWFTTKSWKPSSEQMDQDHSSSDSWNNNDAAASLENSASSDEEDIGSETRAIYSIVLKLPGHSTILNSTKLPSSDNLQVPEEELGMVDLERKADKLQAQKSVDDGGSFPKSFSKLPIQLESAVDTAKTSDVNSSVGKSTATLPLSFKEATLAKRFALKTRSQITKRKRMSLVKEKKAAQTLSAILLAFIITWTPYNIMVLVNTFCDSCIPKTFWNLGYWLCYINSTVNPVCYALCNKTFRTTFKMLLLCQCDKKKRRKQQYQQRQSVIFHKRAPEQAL

SMILES | Ki [1] | Ki [2] | Ki [3] | Ki [4] | Kb [5]
OC1(C2=CN3CCC2CC3)c2ccccc2CCc2ccccc21 | 6900 nM | 2400 nM | 8000 nM | 2040 nM | –
OC1(C2=CN3CCC2CC3)c2ccccc2-c2ccccc21 | > 5000 nM | > 5000 nM | > 5000 nM | > 5000 nM | –
OC1(C2=CN3CCC2CC3)c2ccccc2C=Cc2ccccc21 | > 200 nM | > 200 nM | – | > 200 nM | –
COc1ccccc1C(O)C1=CN2CCC1CC2 (configuration not stated) | 1500 nM | 2200 nM | 2500 nM | 330 nM | 450 nM
OC1(C2=CN3CCC2CC3)c2ccccc2Oc2ccccc21 | 17000 nM | > 8000 nM | – | > 8000 nM | –
c1ccc2c(c1)C(=C1CN3CCC1CC3)c1ccccc1-2 | 100 nM | 98 nM | 249 nM | 50 nM | 370 nM
O=Cc1ccc(C2=CN3CCC2CC3)s1 | 4800 nM | 2600 nM | 5700 nM | 990 nM | –
CC(=O)c1ccc(C2=CN3CCC2CC3)s1 | 2600 nM | 1550 nM | 2600 nM | 480 nM | –

Reference: ChEMBL document CHEMBL1151999, “3-Lithioquinuclidin-2-ene: A novel intermediate for the synthesis of muscarinic agonists and antagonists” (Bioorg Med Chem Lett, 1994)
